Converted amounts (≈) assume the structure as drawn.
Columns and labels:
Assay type in all cases: functional
[1] = tested on: Mycobacterium tuberculosis; experiment: Antibacterial activity against multidrug-resistant 1 ug/ml Mycobacterium tuberculosis clinical isolate 1256 assessed as growth inhibition after 7 days by microtiter plate assay; conditions: isolate 1256, 168 h
[2] = tested on: Mycobacterium tuberculosis; experiment: Antibacterial activity against multidrug-resistant 1 ug/ml Mycobacterium tuberculosis clinical isolate 1259 assessed as growth inhibition after 7 days by microtiter plate assay; conditions: isolate 1259, 168 h
[3] = tested on: Mycobacterium tuberculosis; experiment: Antibacterial activity against multidrug-resistant 1 ug/ml Mycobacterium tuberculosis clinical isolate 1288 assessed as growth inhibition after 7 days by microtiter plate assay; conditions: isolate 1288, 168 h
[4] = tested on: Mycobacterium tuberculosis; experiment: Antibacterial activity against multidrug-resistant 1 ug/ml Mycobacterium tuberculosis clinical isolate 930 assessed as growth inhibition after 7 days by microtiter plate assay; conditions: isolate 930, 168 h
[5] = tested on: Mycobacterium tuberculosis; experiment: Antibacterial activity against multidrug-resistant 1 ug/ml Mycobacterium tuberculosis clinical isolate 1237 assessed as growth inhibition after 7 days by microtiter plate assay; conditions: isolate 1237, 168 h

C[C@H]1[C@@H](O)O[C@@H]2O[C@@]3(C)CC[C@H]4[C@H](C)CC[C@@H]1[C@@]24OO3 [ARTENIMOL]
MIC [1]: > 16 µg/mL | MIC [2]: > 16 µg/mL | MIC [3]: > 16 µg/mL | MIC [4]: > 16 µg/mL | MIC [5]: > 16 µg/mL

C[C@H]1[C@@H](OCCNC2CCN(c3c(F)cc4c(=O)c(C(=O)O)cn(C5CC5)c4c3Cl)C2)O[C@@H]2O[C@@]3(C)CC[C@H]4[C@H](C)CC[C@@H]1[C@@]24OO3 (stereo not given in full)
MIC [1]: 16 µg/mL (≈ 23.7 µM) | MIC [2]: 2 µg/mL (≈ 2.96 µM) | MIC [3]: 0.125 µg/mL (≈ 0.185 µM) | MIC [4]: 4 µg/mL (≈ 5.92 µM) | MIC [5]: 2 µg/mL (≈ 2.96 µM)

O=C(O)c1cn(-c2ccc(F)cc2)c2cc(N3CCNCC3)c(F)cc2c1=O [SARAFLOXACIN]
MIC [1]: 16 µg/mL (≈ 41.5 µM) | MIC [2]: 4 µg/mL (≈ 10.4 µM) | MIC [3]: > 16 µg/mL | MIC [4]: > 16 µg/mL | MIC [5]: > 16 µg/mL

CCn1cc(C(=O)O)c(=O)c2cc(F)c(N3CCNCC3)cc21 [NORFLOXACIN]
MIC [1]: 16 µg/mL (≈ 50.1 µM) | MIC [2]: 2 µg/mL (≈ 6.26 µM) | MIC [3]: > 16 µg/mL | MIC [4]: > 16 µg/mL | MIC [5]: > 16 µg/mL

NC1CCN(c2c(F)cc3c(=O)c(C(=O)O)cn(C4CC4)c3c2Cl)C1 (stereo not given) [CLINAFLOXACIN]
MIC [1]: 0.5 µg/mL (≈ 1.37 µM) | MIC [2]: 0.125 µg/mL (≈ 0.342 µM) | MIC [3]: 1 µg/mL (≈ 2.73 µM) | MIC [4]: 4 µg/mL (≈ 10.9 µM) | MIC [5]: 1 µg/mL (≈ 2.73 µM)

C[C@H]1[C@@H](OCCCNC2CCN(c3c(F)cc4c(=O)c(C(=O)O)cn(C5CC5)c4c3Cl)C2)O[C@@H]2O[C@@]3(C)CC[C@H]4[C@H](C)CC[C@@H]1[C@@]24OO3 (stereo not given in full)
MIC [1]: 16 µg/mL (≈ 23.2 µM) | MIC [2]: 2 µg/mL (≈ 2.9 µM) | MIC [3]: 0.125 µg/mL (≈ 0.181 µM) | MIC [4]: 4 µg/mL (≈ 5.8 µM) | MIC [5]: 2 µg/mL (≈ 2.9 µM)

Source: ChEMBL document CHEMBL3232938, “Design, synthesis, and biological evaluation of dihydroartemisinin-fluoroquinolone conjugates as a novel type of potential antitubercular agents” (2014)
